Measured values published in patent publication US20150020916A1, “Antiperspirant Spray Devices and Compositions” (The Procter & Gamble Company, priority 2013, published 2015).

Source text: (§1) Solubility may be determined by measuring the amount of light transmittance (a light transmittance value) through a simple mixture of the non-volatile silicone fluid and liquid activation enhancer at the same weight/weight concentrations as in a final antiperspirant composition.
as §1, with “Solubility of a liquid activation enhancer in a non-volatile silicone” for “Solubility”, “(light” for “(a light”
The Spectronic Genesys 10 Vis utilizes a tungsten-halogen light source and has a spectral bandwidth of 5 nm, a wavelength range of 325 to 1100 nm, accuracy of ±1 nm and a repeatability of ±0.5 nm. Readouts include absorbance, transmittance and concentration. The spectrophotometer is set to 640 nm wavelength and the percent transmittance mode/readout. Polystyrene spectrometer cuvettes having a 1 cm optical light path and transmittance between ˜340 nm and ˜900 nm are used. One suitable example of a spectrometer cuvette is available from VWR International LLC under Catalog #97000-584 having a 2.5 to 4.5 ml capacity. The spectrophotometer is calibrated according to the manufacturer's instructions using a reference cuvette and composition comprised of just the non-volatile silicone fluid of interest. For example, if the test composition comprises 50 centistoke dimethicone and 15% w/w of isopropyl myristate, then the spectrometer is calibrated using a cuvette containing just 50 centistoke dimethicone. Sample cuvettes are filled sufficiently with a test composition of a non-volatile silicone fluid and liquid activation enhancer so that the light path of the spectrophotometer passes through the test composition in the cuvette. The sample cuvettes are shaken well just prior to taking a light transmittance reading.

Compound | light transmittance value | solubility in 50 centistoke dimethicone
CCCCCCCCCCCCCCCCCC(=O)OCCCC [butyl stearate] | about 100% | –
CCCCCCCCCCC(CO)CCCCCCCC (centres unmarked) [octyldodecanol] | – | soluble in the 50 centistoke dimethicone at some (lower) concentrations
PPG-14 butyl ether | – | insoluble
mineral oil | – | soluble in 50 centistoke dimethicone at some (lower) concentrations

Now from value to compound, other results behind:

light transmittance value | Compound | solubility in 50 centistoke dimethicone
about 100% | CCCCCCCCCCCCCC(C)C [isohexadecane] | soluble
about 101% | CCCCCCCCCCCCCC(=O)OC(C)C [isopropyl myristate] | –
about 101% | CCCCCCCCCCCCCCCC(=O)OC(C)C [isopropyl palmitate] | –
